Each structure is given as a SMILES string. Read-outs that look alike come from different tables or passages of the source.

We go through 4 compounds from US20040266882A1 (priority 2001, published 2004).

Series [1] has as its system C6 cells. The settings on record: cells loaded with 0.1 μg/ml DOX alone. The method, then: Cells were grown in monolayers as described above. […] Control cells received media alone.
Series [2] has as its system C-26 cells. Nature of the series: Solid tumor model, C-26 cells injected into footpad. In kind it is in vivo, mice. Conditions: for solid tumor volume with time, single agent: fluoxetine 0.04 mg/kg daily orally alone, or MMC or DOX 5 mg/kg i.v. alone. The method, then: In the solid tumor model, C-26 cells were injected into the animal's right-hind footpad.
In the solid tumor model, Mitomycin C (MMC) and Doxorubicin (DOX), were tested separately, each at a dose of 5 mg/kg body.

Series [3] has as its system B16F10 cells. The settings on record: for lung metastatic burden (lung weight increase, number of lung metastasis), single agent: fluoxetine 0.04 mg/kg daily orally alone, or Doxorubicin 10 mg/kg i.v. alone.
The test system of series [4] is PANC-1, C6, MCF-7, U2OS and HT1080. Conditions: 48 hours; for reduction in cell survival, drug alone: non-resistant cell lines, 0.1 μg/ml DOX or 0.3 μg/ml VIN alone. The method, then:
Studies similar in general to those outlined in the previous section, were conducted with five cell lines selected for this task (PANC-1, C6, MCF-7, U2OS and HT1080), increasing the length of the experiment to 48 hours. The studies were done with DOX and with Vinblastine (VIN or VLB).

For series [5] the following is noted: daily dose; cited from earlier work.
The subject of series [6] is C6 cells. Also noted: effect on cell survival: dose or concentration left out as unconfirmed. Conditions: 24 hours; for enhancement in cell death by the combination treatment: vs drug alone.
The subject of series [7] is concavalin A-stimulated normal lymphocytes. The settings on record: doses equivalent to 20-40 mg/M^2; cited from earlier work.
In series [8] the test system is fibrosarcoma cells. Conditions: doses equivalent to 20-40 mg/M^2; cited from earlier work.
The test system of series [9] is PANC-1 cells. Also noted: effect on cell survival: dose or concentration left out as unconfirmed. Conditions: 24 hours; for enhancement in cell death by the combination treatment: vs drug alone.
[10] abbreviates: […] μM fluoxetine + 0.1 μg/ml Doxorubicin.
The mark [11] stands for this setting: […] μM fluoxetine + 30 μg/ml Mitomycin C.

As for `COc1cccc2c1C(=O)c1c(O)c3c(c(O)c1C2=O)C[C@@](O)(C(=O)CO)C[C@@H]3O[C@H]1C[C@H](N)[C@H](O)[C@H](C)O1` [Doxorubicin], the “depletion of intracellular DOX at 2 hours” value in series [1] came out at 100%. Further, the “solid tumor volume with time, single agent” value (shortened to “solid tumor volume with time”) in series [2] was “increases fast and exponentially”. For the same compound, the “lung metastatic burden (lung weight increase, number of lung metastasis), single agent” value in series [3] is listed as “only a mild reduction”. In addition, the “reduction in cell survival, drug alone” value in series [4] turned out to be 50%.

On to `CNCCC(Oc1ccc(C(F)(F)F)cc1)c1ccccc1` (stereo not shown) [fluoxetine, N-methyl 3-(p-trifluoromethylphenoxy)-3-phenylpropylamine], for which the “known, acceptable safety limit” value in series [5] is recorded as 80 mg/M^2. In addition, the prolongation of survival in series [2] (DOX+CS vs saline, CS alone and DOX alone) is 3 fold; in [2] (MMC+CS vs saline, CS alone and MMC alone), 2 fold. The “solid tumor size and growth, combination therapy” value in series [2] (fluoxetine 0.04 mg/kg daily orally + DOX 5 mg/kg i.v.) and in [2] (fluoxetine 0.04 mg/kg daily orally + MMC 5 mg/kg i.v.) was “tumors are substantially smaller” throughout. Also, the “solid tumor volume with time” value in [2] is “increases fast and exponentially”. The “enhancement in cell death by the combination treatment” value in series [6] (setting [10]), in series [6] (setting [11]), in series [9] (setting [10]) and in [9] (setting [11]) was 3-4 fold in each case. Besides, the “effect on cell survival” value in series [6] ([…] μM fluoxetine alone) and in [9] ([…] μM fluoxetine alone) was “does not affect cell survival at all” each time. In series [7], the “effect on proliferation of concavalin A-stimulated normal lymphocytes” value was “inhibits the proliferation”. The “survival, single agent” value in series [3] (CS alone or CT alone, 75-days experiment) is on record as “died rather early”. For the same compound, in series [3] (fluoxetine 0.04 mg/kg daily orally + Doxorubicin 10 mg/kg i.v.), the “lung metastatic burden, combination treatment” value is recorded as “substantial reduction”. Besides, in series [3], the “lung metastatic burden (lung weight increase, number of lung metastasis), single agent” value is on record as “highest metastatic burden”. In addition, the “survival, combination treatment” value in series [3] (fluoxetine + Doxorubicin, 75-days experiment) is “long survivors”. The “effect on proliferation of fibrosarcoma cells” value in series [8] was “promotes the proliferation”. The “toxicity to the cells, fluoxetine alone” value in series [4] (fluoxetine alone, 0-15 μM) is listed as “not toxic”.

As for `CO[C@@]12[C@H](COC(N)=O)C3=C(C(=O)C(C)=C(N)C3=O)N1C[C@@H]1N[C@@H]12` [Mitomycin C], in series [2], the “solid tumor volume with time” value was “increases fast and exponentially”.

Take `CC[C@]1(O)C[C@@H]2CN(CCc3c([nH]c4ccccc34)[C@@](C(=O)OC)(c3cc4c(cc3OC)N(C)[C@H]3[C@@](O)(C(=O)OC)[C@H](OC(C)=O)[C@]5(CC)C=CCN6CC[C@]43[C@@H]65)C2)C1` [Vinblastine]: the “reduction in cell survival, drug alone” value in series [4] amounted to 50%.
